The source of these data is US20250295799A1, “ANTIBODY-DRUG CONJUGATES TARGETING GLYPICAN-3 AND METHODS OF USE” (Zymeworks BC Inc., priority 2022, published 2025).

For one experiment, the system named is HepG2 cells (GPC3-high). Briefly: On-cell binding by flow cytometry. Particulars: 24 h at 4 °C. Here is the method: Briefly, cells were seeded at 50,000 cells/well in V-bottom 96-well plates and treated with antibody for 24 hours at 4° C. to prevent internalization. […] Following incubation and washing, fluorescence was detected by flow cytometry on a BD LSRFortessa™ Cell Analyzer (BD Biosciences, Franklin Lake, NJ) with 1,000 minimum events collected per well.
Background: Flow cytometry measures light scatter and fluorescence of single cells or particles in a stream.

The subject of a further experiment is JHH-7 cells (GPC3-high). Kind of experiment: On-cell binding by flow cytometry. Conditions: 24 h at 4 °C. As to the method: Briefly, cells were seeded at 50,000 cells/well in V-bottom 96-well plates and treated with antibody for 24 hours at 4° C. to prevent internalization. […] Following incubation and washing, fluorescence was detected by flow cytometry on a BD LSRFortessa™ Cell Analyzer (BD Biosciences, Franklin Lake, NJ) with 1,000 minimum events collected per well. AF647/APC-A GeoMean (fluorescence signal geometric mean, proportional to anti-Human AF647 binding) in live cell population was plotted against antibody concentration using GraphPad Prism Version 9 (GraphPad Software, San Diego, CA). The Bmax, Curve Hill Slope (h) and Kd values were derived from the “Specific binding with Hill slope” nonlinear regression curve fit in GraphPad Prism Version 9.
The on-cell binding capabilities of light chain (LC)-modified M3-H18L6 antibody constructs were assessed on JHH-7 (hepatocellular carcinoma; GPC3-high) and JHH-5 (hepatocellular carcinoma; GPC3-mid) by flow cytometry as described below. […] The assay was carried out as described in Example 13.
Briefly, plasma stress was carried out by incubating M3-H18L6 LC-modified antibodies in mouse plasma (BioIVT, Westbury, NY; Cat. No. MSE00PL38NC-0103070) for 14 days in a 37° C./5% CO2 incubator. […] Following incubation and washing, fluorescence was detected by flow cytometry on a BD LSRFortessa™ Cell Analyzer (BD Biosciences, Franklin Lake, NJ) with 1,000 minimum events collected per well. AF647/APC-A GeoMean (fluorescence signal geometric mean, proportional to anti-Human AF647 binding) in live cell population was plotted against antibody concentration using GraphPad Prism Version 9 (GraphPad Software, San Diego, CA). […] Following incubation, cells were dissociated, washed, and surface AF488 fluorescence was quenched using an anti-AF488 antibody (Life Technologies, Carlsbad, CA; Cat. No. A-11094) at 100 nM for 30 minutes at 4° C. Quenched AF488 fluorescence (internalized fluorescence) was detected by flow cytometry on a BD LSRFortessa™ Cell Analyzer (BD Biosciences, Franklin Lake, NJ) with 1,000 minimum events collected per well.

Experiment [1] has as its system Hep G2 cells (high GPC3-expressing). Briefly: Internalization by flow cytometry (quenched AF488). The format is cell-based. Particulars: antibody 10 nM. Here is the method:
(§1) Cells were seeded at 50,000 cells/well in 48-well plates and incubated overnight under standard culturing conditions (37° C./5% CO2) in Gibco™ Dulbecco's Modified Eagle Media (DMEM) (Thermo Fisher Scientific, Waltham, MA; Cat. No. 11995040) with 10% Fetal Bovine Serum (FBS) (Thermo Fisher Scientific, Waltham, MA; Cat. No. 12483020) for Hep G2 cells, and Gibco™ William's E Medium, GlutaMAX™ Supplement (Thermo Fisher Scientific, Waltham, MA; Cat. No. 32551020) with 10% FBS (Thermo Fisher Scientific, Waltham, MA; Cat. No. 12483020) for JHH-7 cells. Coupled antibodies were added to cells the following day at 10 nM or at 100 nM and incubated under standard culturing conditions for 5-24 hours to allow for internalization. Following incubation, cells were dissociated, washed, and surface AF488 fluorescence was quenched using an anti-AF488 antibody (Life Technologies, Carlsbad, CA; Cat. No. A-11094) at 100 nM for 30 minutes at 4° C. Quenched AF488 fluorescence (internalized fluorescence) was detected by flow cytometry on a BD LSRFortessa™ Cell Analyzer (BD Biosciences, Franklin Lake, NJ) with 1,000 minimum events collected per well.

Experiment [2] concerns JHH-7 cells (high GPC3-expressing). Briefly: Internalization by flow cytometry (quenched AF488). The format is cell-based. Conditions: antibody 10 nM. Here is the method: as §1
as §1, with “CO2)” for “CO2) in Gibco™ Dulbecco's Modified Eagle Media (DMEM) (Thermo Fisher Scientific, Waltham, MA; Cat. No. 11995040) with 10% Fetal Bovine Serum (FBS) (Thermo Fisher Scientific, Waltham, MA; Cat. No. 12483020) for Hep G2 cells, and”, “12483020).” for “12483020) for JHH-7 cells.”, “5” for “10 nM or at 100”, “24” for “5-24”, “well. […]” for “well.”

Broadly, the Kd is the constant that tells how readily two partners part at equilibrium. Read a high Kd as a looser complex. On to palivizumab [v22277 (palivizumab)], for which the Kd with HepG2 cells (GPC3-high) and in the experiment with JHH-7 cells (GPC3-high) was over 60 nM each time. The “Internalized fluorescence, fold increase over palivizumab, Hep G2, 5 hours” value in experiment [1] (5 hours) turned out to be 1.0 fold. Besides, the “Internalized fluorescence, fold increase over palivizumab, Hep G2, 24 hours” value in experiment [1] (24 hours) is 1.0 fold. For the same substance, the “Internalized fluorescence, fold increase over palivizumab, JHH-7, 5 hours” value in experiment [2] (5 hours) worked out at 1.0 fold. In addition, the “Internalized fluorescence, fold increase over palivizumab, JHH-7, 24 hours” value in experiment [2] (24 hours) was 1.0 fold.
